Compound	melting point
Cn1cncc1C(c1ccc(Cl)cc1)c1ccc2c(c1)c(-c1nc(-c3ccccc3)cs1)cc(=O)n2C (centres unmarked) [Example B6, 6-[(4-chlorophenyl)(1-methyl-1H-imidazol-5-yl)methyl]-1-methyl-4-(4-phenyl-2-thiazolyl)-2(1H)-quinolinone]	171 °C
Cn1cncc1C(O)(c1ccc(Cl)cc1)c1ccc2c(c1)c(-c1cccs1)cc(=O)n2C (centres unmarked) [Example B2, 6-[(4-chlorophenyl)hydroxy(1-methyl-1H-imidazol-5-yl)methyl]-1-methyl-4-(2-thienyl)-2(1H)-quinolinone]	> 260 °C
Cn1cncc1C(O)(c1ccc(Cl)cc1)c1ccc2[nH]c(=O)cc(-c3cccnc3)c2c1 (centres unmarked) [Example B3, 6-[(4-chlorophenyl)hydroxy(1-methyl-1H-imidazol-5-yl)methyl]-4-(3-pyridinyl)-2(1H)-quinolinone]	> 250 °C
O=c1cc(-n2ccnc2)c2cc(C(c3ccc(Cl)cc3)n3ccnc3)ccc2[nH]1 (centres unmarked) [Example B1, 6-[(4-chlorophenyl)-1H-imidazol-1-ylmethyl]-4-(1H-imidazol-1-yl)-2(1H)-quinolinone]	242.3 °C
Cn1cncc1C(N)(c1ccc(Cl)cc1)c1ccc2c(c1)c(-c1nc(-c3ccccc3)cs1)cc(=O)n2C (centres unmarked) [Example B7, 6-[amino(4-chlorophenyl)(1-methyl-1H-imidazol-5-yl)methyl]-1-methyl-4-(4-phenyl-2-thiazolyl)-2(1H)-quinolinone]	237 °C
Cn1cncc1C(O)(c1ccc(Cl)cc1)c1ccc2c(c1)c(-c1nc(-c3ccccc3)cs1)cc(=O)n2C (centres unmarked) [Example B4, 6-[(4-chlorophenyl)hydroxy(1-methyl-1H-imidazol-5-yl)methyl]-1-methyl-4-(4-phenyl-2-thiazolyl)-2(1H)-quinolinone]	200 °C

The remaining lines, values ahead:

melting point	Compound
100 °C	Cn1c(=O)cc(CCc2ccc(Cl)s2)c2cc(C(N)(c3ccc(Cl)cc3)c3cccnc3)ccc21 (centres unmarked) [Example B14, 6-[amino(4-chlorophenyl)-3-pyridinylmethyl]-4-[2-(5-chloro-2-thienyl)ethyl]-1-methyl-2(1H)-quinolinone]
128 °C	Cn1cncc1C(O)(c1ccc(Cl)cc1)c1ccc2c(c1)c(CCc1ccc(Cl)s1)cc(=O)n2C (centres unmarked) [Example B10, 6-[(4-chlorophenyl)hydroxy(1-methyl-1H-imidazol-5-yl)methyl]-4-[2-(5-chloro-2-thienyl)ethyl]-1-methyl-2(1H)-quinolinone]
190 °C	Cn1c(=O)cc(-c2nc(-c3ccccc3)cs2)c2cc(C(c3ccc(Cl)cc3)c3cnc(-c4ccccc4)[nH]3)ccc21 (centres unmarked) [Example B9 (F2), 6-[(4-chlorophenyl)(2-phenyl-1H-imidazol-5-yl)methyl]-1-methyl-4-(4-phenyl-2-thiazolyl)-2(1H)-quinolinone]
244 °C	CC(=O)NC(c1ccc(Cl)cc1)(c1ccc2c(c1)c(-c1nc(-c3ccccc3)cs1)cc(=O)n2C)c1cncn1C (centres unmarked) [Example B8, N-[(4-chlorophenyl)[1,2-dihydro-1-methyl-2-oxo-4-(4-phenyl-2-thiazolyl)-6-quinolinyl](1-methyl-1H-imidazol-5-yl)methyl]-acetamide]
110 °C	Cn1c(=O)cc(CCc2ccc(Cl)s2)c2cc(C(O)(c3ccc(Cl)cc3)c3cccnc3)ccc21 (centres unmarked) [Example B13, 6-[(4-chlorophenyl)hydroxy-3-pyridinylmethyl]-4-[2-(5-chloro-2-thienyl)ethyl]-1-methyl-2(1H)-quinolinone]

Reference: patent publication US20060135769A1, “Farnesyl transferase inhibiting 4-heterocyclyl-quinoline and quinazoline derivatives” (priority 2000, published 2006)
